Measurements from patent US5468758A, “Crystalline forms of endo-2,3-dihydro-N-(8-methyl)-8-azabicyclo[3.2.1]oct-3-yl)-2-oxo-1H-benz imidazole-1-carboxamides” (Boehringer Ingelheim Italia S.p.A., priority 1992, dated 1995).
Where a name gives a salt, the structure may show the parent alone.

Experiments:
Format in all cases: physicochemical
[1] = Accelerated stability tests in tablets and capsules; conditions: for % degradation: tablets and capsules in PVC/PVDC blister with aluminium foil, hydrochloride monohydrate
Text: (§1) Drug stability in these final compositions may be measured in accelerated stability tests or in long term real time stability tests. In accelerated stability tests, the above pharmaceutical compositions are exposed at high temperatures at different degrees of relative humidity for a period of time. Such tests are considered to be indicative of the stability of the composition at normal conditions. In long term real time stability studies the final compositions are exposed to normal conditions of storage at ambient temperatures at different degrees of relative humidity.
(*)according to H. Leven Berger Pharm. Act. Helv. 50 (1975) 88-91 it is
equivalent to 2 years storage at room temperature. Tablets and capsules
are packaged in PVC/PVDC blister with aluminium foil.
(*)according to "Guidelines for stability studies for Human Drugs and
Biologics" (1987) (USA/FDA) it is equivalent to 2 years at room
temperature. Tablets and capsules are packaged in PVC/PVDC blister with […]

[2] = Long-term real time stability tests in tablets and capsules; conditions: for % degradation: tablets and capsules in PVC/PVDC blister with aluminium foil, hydrochloride monohydrate
Text: as §1
Tablets and capsules are packaged in PVC/PVDC blister with aluminium foil

[3] = Water loss on desiccation under vacuum; conditions: between room temperature and 60° C. under vacuum, most preferably 40° C., 0.1 mm Hg, 24 hours; in words
Protocol: Compounds 2a and 2b may be prepared by dissolving the compounds 1a and 1b, as free base, in a hot aqueous solvent, preferably a hot aqueous alkanol, by adding the required amount of gaseous hydrogen chloride, filtering the resulting solution and letting it cool to room temperature. In a preferred embodiment of the process according to the invention, compound 2a is prepared by using, as an hot aqueous alkanol, hot 85% aqueous ethanol. The crystals of compound 2a may be collected by vacuum filtration and are washed with a small amount of aqueous ethanol. In a preferred embodiment of the process according to the invention, compound 2b is prepared by using, as an hot aqueous alkanol, hot 95% aqueous isopropanol. The crystals of compound 2b may be collected by vacuum filtration and are washed with a small amount of aqueous isopropanol. […] Water content may be measured by usual techniques such as the Karl Fischer test. Alternatively, compounds 2a and 2b may be conveniently prepared by dissolving the anhydrous form of compounds 1a and 1b, as hydrochloride, in hot aqueous ethanol, preferably 85% ethanol (respectively in hot aqueous isopropanol, preferably 95% isopropanol) and allowing to cool the solution at room temperature; crystals of compound 2 a (respectively 2b), separated from the cooled solution, are collected by vacuum filtration and manipulated as previously described. […]

[4] = Moisture content during tablet manufacturing (mixing and tableting); conditions: hydrochloride monohydrate; for Moisture content: % on the weight of compound 1a
Text: As a consequence, storage of compound 2a may be effected in normal conditions and no particular precautions are needed to avoid exposure to moisture. The titer of compound 2a, when it is stored in normal conditions, is therefore maintained at difference with compound 1a which, in the same conditions, may show different titles according to the water content. The hygroscopicity may also influence the drug title immediately after the manufacturing of tablets. In fact during the process of manufacturing the drug exposed at normal ambient conditions where it can take up moisture.

[5] = Milling studies (FRITSCH Pulverisette 14 Rotor Speed Mill)
Protocol: The milling process was performed by the FRITSCH Pulverisette 14 Rotor Speed Mill supplied with circular sieve stainless steel with trapezoidal 0.080 mm diameter openings. The samples were passed through the mill twice at 20.000 rpm motor speed. The sample is assayed for title and degradation products by TLC and HPLC, physical state by DSC, water content by TGA, particle size distribution by Mercury Instrusion Porosimetry. The mi 11ed compounds are formulated in capsules and tablets at very low dose level (0.5 mg) by direct mixing and direct compression manufacturing method, respectively.

[6] = Moisture sorption/desorption studies (hygrostat, storage at different temperatures and relative humidity); conditions: for water content (Table V): 11.2% RH, % on the weight of compound 1a
Protocol: The determination of the sorption isotherms was carried out in a hygrostat.
At suitable intervals, the sample was weighed by means of a sample balance. The atmosphere in the hygrostat and therefore around the sample of compound 1a (1b) and 2a (2b) was conditioned and kept by a saturated solutions of a suitable salt:
Na Cl saturated solution 75.3% RH/25° C. 74.8% RH/37° C.
KNO3 saturated solution 93.7% RH/25° C. 90.0% RH/37° C.
At the end of the experiment, after completing the hysteresis, that is the adsorption--desorption cycle of humidity, the compound was assayed for the title and degradation products by TLC and HPLC, the physical state by DSC and water content by TGA.

- % degradation ([1]; 1 month/55° C., 43200 min): 0.5%
- % degradation ([1]; 3 months/40° C.-75% RH, 129600 min): 0.5%
- % degradation ([1]; 3 months/55° C., 129600 min): 1.6%
- % degradation ([1]; 6 months/40° C.-75% RH, 259200 min): 1.0%
- stability in tablets and capsules ([1]; accelerated tests, in comparison with compounds 1a and 1b, in words): better stability
- % degradation ([2]; 3 months/40° C., 129600 min): 0.4%
- % degradation ([2]; 6 months/30° C.-70% RH, 259200 min): 0.1%
- % degradation ([2]; 6 months/40° C., 259200 min): 0.6%
- stability in tablets and capsules ([2]; long term real time tests, in comparison with compounds 1a and 1b, in words): better stability
- Moisture content ([4]; Final (b), tableting): 4.90%
- Moisture content ([4]; Intermediate (a), mixing): 4.90%
- Moisture content ([4]; Start): 4.90%
- water content during manufacturing ([4]; mixing (a) and tableting (b) phases, in words): stable water content
- particle size reduction (milling efficiency) ([5]; Mercury Porosimetry Analysis, in words): same rank order
- stability to milling ([5]; in words, in comparison with the anhydrous form): unexpected better stability to milling
- percentage of degradation products after milling ([5]; rotor speed of 20,000 rpm, hydrochloride monohydrate): 0.0%
- water content in conditions of extreme dryness ([6]; 11 RH, 37° C., in words): not affected
- water content (Table V) ([6]; 37° C., 2 h): 5.32%
- water content (Table V) ([6]; 37° C., 4 h): 5.31%
- water content (Table V) ([6]; 37° C., 6 h): 5.31%
- water content (Table V) ([6]; 37° C., 21 days): 5.29%
- water content (Table V) ([6]; 37° C., time 0): 5.26%
- water content (Table III) ([6]; 37° C., 75% RH, 2 h, hydrochloride monohydrate): 5.8%
- water content (Table III) ([6]; 37° C., 75% RH, 4 h, hydrochloride monohydrate): 5.75%
- water content (Table III) ([6]; 37° C., 75% RH, 6 h, hydrochloride monohydrate): 5.79%
- water content (Table III) ([6]; 37° C., 75% RH, 1 d, hydrochloride monohydrate): 5.75%
- water content (Table III) ([6]; 37° C., 75% RH, 5 d, hydrochloride monohydrate): 5.8%
- water content (Table III) ([6]; 37° C., 75% RH, 9 d, hydrochloride monohydrate): 5.76%
- water content (Table III) ([6]; 37° C., 75% RH, 15 d, hydrochloride monohydrate): 5.8%
- water content (Table III) ([6]; 37° C., 94% RH, 2 h, hydrochloride monohydrate): 5.49%
- water content (Table III) ([6]; 37° C., 94% RH, 4 h, hydrochloride monohydrate): 5.47%
- water content (Table III) ([6]; 37° C., 94% RH, 6 h, hydrochloride monohydrate): 5.53%
- water content (Table III) ([6]; 37° C., 94% RH, 1 d, hydrochloride monohydrate): 5.5%
- water content (Table III) ([6]; 37° C., 94% RH, 5 d, hydrochloride monohydrate): 5.49%
- water content (Table III) ([6]; 37° C., 94% RH, 9 d, hydrochloride monohydrate): 5.48%
- water content (Table III) ([6]; 37° C., 94% RH, 15 d, hydrochloride monohydrate): 5.48%
- water content (Table III) ([6]; Room Temperature, 75% RH, 2 h, hydrochloride monohydrate): 5.46%
- water content (Table III) ([6]; Room Temperature, 75% RH, 4 h, hydrochloride monohydrate): 5.43%
- water content (Table III) ([6]; Room Temperature, 75% RH, 6 h, hydrochloride monohydrate): 5.37%
- water content (Table III) ([6]; Room Temperature, 75% RH, 1 d, hydrochloride monohydrate): 5.41%
- water content (Table III) ([6]; Room Temperature, 75% RH, 4 d, hydrochloride monohydrate): 5.42%
- water content (Table III) ([6]; Room Temperature, 75% RH, 8 d, hydrochloride monohydrate): 5.36%
- water content (Table III) ([6]; Room Temperature, 75% RH, 20 d, hydrochloride monohydrate): 5.41%
- water content (Table III) ([6]; Room Temperature, 94% RH, 2 h, hydrochloride monohydrate): 5.49%
- water content (Table III) ([6]; Room Temperature, 94% RH, 4 h, hydrochloride monohydrate): 5.53%
- water content (Table III) ([6]; Room Temperature, 94% RH, 6 h, hydrochloride monohydrate): 5.51%
- water content (Table III) ([6]; Room Temperature, 94% RH, 1 d, hydrochloride monohydrate): 5.49%
- water content (Table III) ([6]; Room Temperature, 94% RH, 4 d, hydrochloride monohydrate): 5.44%
- water content (Table III) ([6]; Room Temperature, 94% RH, 8 d, hydrochloride monohydrate): 5.48%
- water content (Table III) ([6]; Room Temperature, 94% RH, 20 d, hydrochloride monohydrate): 5.49%
- stability in condition of storage ([6]; different temperatures and relative humidity, in words): stable
- moisture absorption ([6]; different temperatures and relative humidity, in words, hydrochloride monohydrate): do not absorb moisture
SMILES: CN1C2CCC1CC(NC(=O)n1c(=O)[nH]c3ccccc31)C2 (stereo not drawn) [Compound 2a, Endo-2,3-dihydro-N-(8-methyl-8-azabicyclo[3.2.1]oct-3-yl)-2-oxo-1H-benzimidazole-1-carboxamide, hydrochloride monohydrate]
- loss of water content on desiccation [3]: without any appreciable loss of water content
